Test results published in ChEMBL document CHEMBL4376828, “Small-Molecule Inhibitors of Necroptosis: Current Status and Perspectives” (J Med Chem, 2020).
Blank lines part the entries; values can stand above or below the compound they belong to.

Legend:
Fibroblast = test: Anti-neprotic activity in mouse fibroblasts cells; assay type: functional, cell-based
HT-29 = test: Anti-neprotic activity in human HT-29 cells assessed as reduction in TSZ-induced necroptosis incubated for 24 hrs by cell titer glo-based luminescence assay; assay type: functional; settings: HT-29, 24 h
L929 = test: Anti-neprotic activity in mouse L929 cells assessed as reduction in TNF-induced necroptosis and measured every 1 hr by SYTOX Green dye based fluorescence assay; assay type: functional, cell-based; settings: L929, 1 h
Mus musculus [1] = test: Antiinflammatory Activity in C57BL/6 mouse TNFalpha-induced mouse model of SIRS assessed as reduction in TNF-induced body temperature at 0.226 mg/kg, iv pretreated for 15 mins followed by TNFalpha-stimulation and measured up to 4 days by thermometric method relative to control; assay type: functional; parameters: scale not given: the % may be the effect or the level left
[2] = molecular target: T1, Indoleamine 2,3-dioxygenase 1 (Homo sapiens, UniProt P14902); test: Inhibition of recombinant human IDO using L-Trp as substrate incubated for 60 mins
T1 sequence (P14902 whole entry, the tested form may be a part): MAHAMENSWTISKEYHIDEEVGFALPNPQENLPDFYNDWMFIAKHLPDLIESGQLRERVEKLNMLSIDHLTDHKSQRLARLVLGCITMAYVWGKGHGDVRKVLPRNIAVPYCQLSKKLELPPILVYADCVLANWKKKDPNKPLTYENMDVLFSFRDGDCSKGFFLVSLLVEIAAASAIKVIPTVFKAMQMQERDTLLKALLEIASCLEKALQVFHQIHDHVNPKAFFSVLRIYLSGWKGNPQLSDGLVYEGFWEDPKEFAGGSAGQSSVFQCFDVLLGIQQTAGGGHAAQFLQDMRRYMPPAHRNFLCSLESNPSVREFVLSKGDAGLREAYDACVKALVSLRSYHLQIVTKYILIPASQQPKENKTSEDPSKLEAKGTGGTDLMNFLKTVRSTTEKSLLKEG

[3] = molecular target: T2, Receptor-interacting serine/threonine-protein kinase 1 (Homo sapiens, UniProt Q13546); test: Inhibition of recombinant human GST-tagged RIPK1 (1 to 479 residues) incubated for 4 hrs by ADP-Glo assay
T2 sequence (Q13546 whole entry): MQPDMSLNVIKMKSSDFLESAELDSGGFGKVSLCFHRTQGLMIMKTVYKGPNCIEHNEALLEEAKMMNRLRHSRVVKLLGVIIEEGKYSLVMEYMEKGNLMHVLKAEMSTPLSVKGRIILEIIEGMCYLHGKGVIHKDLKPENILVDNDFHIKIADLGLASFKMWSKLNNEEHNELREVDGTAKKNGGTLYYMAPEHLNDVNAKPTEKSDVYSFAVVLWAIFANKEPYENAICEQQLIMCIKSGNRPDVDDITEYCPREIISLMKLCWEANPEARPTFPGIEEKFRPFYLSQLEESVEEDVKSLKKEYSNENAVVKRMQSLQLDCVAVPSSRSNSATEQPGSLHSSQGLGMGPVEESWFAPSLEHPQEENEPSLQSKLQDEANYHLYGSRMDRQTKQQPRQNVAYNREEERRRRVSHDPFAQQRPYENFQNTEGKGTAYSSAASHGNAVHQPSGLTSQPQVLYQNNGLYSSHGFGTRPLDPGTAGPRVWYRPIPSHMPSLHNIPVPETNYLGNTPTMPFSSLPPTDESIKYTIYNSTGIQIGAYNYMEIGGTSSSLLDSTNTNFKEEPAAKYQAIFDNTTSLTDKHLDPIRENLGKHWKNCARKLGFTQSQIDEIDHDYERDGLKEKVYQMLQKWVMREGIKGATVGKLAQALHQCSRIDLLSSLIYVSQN

MEF = test: Anti-neprotic activity in mouse MEF cells assessed as reduction in TNF-induced necroptosis and measured every 1 hr in presence of z-VAD by SYTOX Green dye based fluorescence assay; assay type: functional, cell-based
Mus musculus [4] = test: Antiinflammatory Activity in C57BL/6 mouse TNFalpha-induced mouse model of SIRS assessed as reduction in TNF-induced body temperature at 0.124 mg/kg, iv pretreated for 15 mins followed by TNFalpha-stimulation and measured up to 4 days by thermometric method relative to control; assay type: functional; parameters: scale not given: the % may be the effect or the level left
[5] = molecular target: T1, Indoleamine 2,3-dioxygenase 1; test: Inhibition of IDO (unknown origin)
[6] = molecular target: T3, Receptor-interacting serine/threonine-protein kinase 1 (Mus musculus, UniProt Q60855); test: Inhibition of mouse RIPK1; settings: read-out: Ki(app)
T3 sequence (Q60855 whole entry): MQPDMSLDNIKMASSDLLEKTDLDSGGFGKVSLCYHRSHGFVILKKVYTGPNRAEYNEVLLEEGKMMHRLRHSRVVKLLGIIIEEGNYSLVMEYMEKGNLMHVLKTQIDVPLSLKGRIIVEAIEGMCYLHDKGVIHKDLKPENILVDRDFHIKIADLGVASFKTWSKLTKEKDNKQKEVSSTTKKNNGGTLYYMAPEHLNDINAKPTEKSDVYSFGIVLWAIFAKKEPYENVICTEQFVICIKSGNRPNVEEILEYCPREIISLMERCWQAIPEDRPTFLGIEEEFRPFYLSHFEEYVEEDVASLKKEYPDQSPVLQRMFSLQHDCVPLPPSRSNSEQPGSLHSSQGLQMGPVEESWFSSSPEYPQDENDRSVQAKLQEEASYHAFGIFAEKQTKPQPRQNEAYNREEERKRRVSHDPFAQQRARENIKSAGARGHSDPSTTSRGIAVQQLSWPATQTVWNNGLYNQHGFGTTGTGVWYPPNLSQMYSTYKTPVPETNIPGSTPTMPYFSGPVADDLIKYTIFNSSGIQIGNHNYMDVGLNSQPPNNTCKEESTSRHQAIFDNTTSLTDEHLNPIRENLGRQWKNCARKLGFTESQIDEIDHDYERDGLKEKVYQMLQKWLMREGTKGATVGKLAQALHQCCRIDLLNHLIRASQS

Mus musculus [7] = test: Antiinflammatory activity in TNF-induced mouse model of SIRS assessed as reduction in TNF-induced body temperature at 5 mg/kg, po and measured after 2 to 4 hrs by infrared ear Thermometric method relative to control; assay type: functional; parameters: scale not given: the % may be the effect or the level left
[8] = molecular target: T4, Receptor-interacting serine/threonine-protein kinase 3 (Homo sapiens, UniProt Q9Y572); test: Inhibition of recombinant RIPK3 (unknown origin) using MBP as substrate preincubated for 15 mins followed by addition of MBP and measured after 120 min ADP-Glo kinase assay
T4 sequence (Q9Y572 whole entry): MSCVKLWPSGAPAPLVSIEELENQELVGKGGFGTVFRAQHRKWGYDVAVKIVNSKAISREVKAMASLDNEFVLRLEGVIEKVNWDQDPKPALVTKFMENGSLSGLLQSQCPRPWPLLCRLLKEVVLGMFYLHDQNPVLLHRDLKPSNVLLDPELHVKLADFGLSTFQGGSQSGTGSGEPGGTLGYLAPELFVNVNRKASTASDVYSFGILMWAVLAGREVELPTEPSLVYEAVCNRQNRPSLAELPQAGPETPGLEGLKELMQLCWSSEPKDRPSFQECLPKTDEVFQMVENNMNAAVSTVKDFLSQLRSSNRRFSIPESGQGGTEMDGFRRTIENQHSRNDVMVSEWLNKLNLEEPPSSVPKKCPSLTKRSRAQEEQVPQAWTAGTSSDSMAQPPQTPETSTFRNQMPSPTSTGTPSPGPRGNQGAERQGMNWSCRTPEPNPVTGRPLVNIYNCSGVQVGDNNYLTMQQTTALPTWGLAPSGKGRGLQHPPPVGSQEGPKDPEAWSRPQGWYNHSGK

Mus musculus [9] = test: Antiinflammatory Activity in C57BL/6 mouse TNFalpha-induced mouse model of SIRS at 30 mg/kg, ip pretreated for 15 mins followed by TNFalpha-stimulation and measured after 72 hrs relative to control; assay type: functional
[10] = molecular target: T5, Receptor-interacting serine/threonine-protein kinase 2 (Homo sapiens, UniProt O43353); test: Inhibition of human RIPK2 using MBP as substrate by [gamma33-ATP] based radiometric assay
T5 sequence (O43353 whole entry): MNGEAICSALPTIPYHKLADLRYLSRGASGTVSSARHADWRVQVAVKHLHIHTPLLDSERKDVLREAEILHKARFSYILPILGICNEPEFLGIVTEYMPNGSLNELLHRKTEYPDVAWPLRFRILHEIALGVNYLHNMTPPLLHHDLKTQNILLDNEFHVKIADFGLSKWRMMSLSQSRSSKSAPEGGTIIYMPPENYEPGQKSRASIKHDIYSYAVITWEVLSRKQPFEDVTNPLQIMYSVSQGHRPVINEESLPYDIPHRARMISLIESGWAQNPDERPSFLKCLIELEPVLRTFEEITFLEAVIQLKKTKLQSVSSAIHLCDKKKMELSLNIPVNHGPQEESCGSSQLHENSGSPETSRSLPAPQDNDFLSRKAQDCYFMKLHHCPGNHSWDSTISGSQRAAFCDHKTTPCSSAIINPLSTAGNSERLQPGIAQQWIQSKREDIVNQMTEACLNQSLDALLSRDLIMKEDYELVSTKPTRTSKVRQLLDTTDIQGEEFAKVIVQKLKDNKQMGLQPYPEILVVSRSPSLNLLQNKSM

[11] = molecular target: T2, Receptor-interacting serine/threonine-protein kinase 1; test: Inhibition of human RIPK1 using MBP as substrate by [gamma33-ATP] based radiometric assay
[12] = molecular target: T4, Receptor-interacting serine/threonine-protein kinase 3; test: Inhibition of human RIPK3 using MBP as substrate by [gamma33-ATP] based radiometric assay
[13] = molecular target: T6, Dual serine/threonine and tyrosine protein kinase (Homo sapiens, UniProt Q6XUX3); test: Inhibition of human RIPK5 using MBP as substrate by [gamma33-ATP] based radiometric assay
T6 sequence (Q6XUX3 whole entry): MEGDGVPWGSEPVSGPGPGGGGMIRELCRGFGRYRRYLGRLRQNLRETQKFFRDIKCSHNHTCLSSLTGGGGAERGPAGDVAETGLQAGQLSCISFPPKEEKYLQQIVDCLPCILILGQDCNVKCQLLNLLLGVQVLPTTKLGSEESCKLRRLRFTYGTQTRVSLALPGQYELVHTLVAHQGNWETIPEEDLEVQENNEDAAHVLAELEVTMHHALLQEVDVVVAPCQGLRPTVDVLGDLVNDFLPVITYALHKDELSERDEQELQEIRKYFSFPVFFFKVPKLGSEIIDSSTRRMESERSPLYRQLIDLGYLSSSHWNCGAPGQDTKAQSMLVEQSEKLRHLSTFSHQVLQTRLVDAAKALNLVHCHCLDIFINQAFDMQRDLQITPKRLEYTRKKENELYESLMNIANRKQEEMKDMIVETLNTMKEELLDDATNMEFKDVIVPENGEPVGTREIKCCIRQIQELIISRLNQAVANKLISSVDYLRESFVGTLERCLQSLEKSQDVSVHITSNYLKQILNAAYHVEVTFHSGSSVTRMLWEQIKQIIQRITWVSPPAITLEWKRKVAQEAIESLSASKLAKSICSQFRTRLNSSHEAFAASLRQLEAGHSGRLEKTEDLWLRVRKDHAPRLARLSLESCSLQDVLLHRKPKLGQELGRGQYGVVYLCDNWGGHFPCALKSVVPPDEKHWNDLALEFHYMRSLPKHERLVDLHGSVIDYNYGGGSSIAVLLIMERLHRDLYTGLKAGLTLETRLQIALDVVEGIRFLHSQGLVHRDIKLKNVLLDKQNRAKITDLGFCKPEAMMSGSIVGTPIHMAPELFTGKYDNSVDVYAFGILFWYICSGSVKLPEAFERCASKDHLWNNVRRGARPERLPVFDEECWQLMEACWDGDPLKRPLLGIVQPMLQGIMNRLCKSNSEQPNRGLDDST

[14] = molecular target: T4, Receptor-interacting serine/threonine-protein kinase 3; test: Inhibition of human full length N-terminal GST-tagged RIPK3 expressed in baculovirus infected sf9 insect cells assessed as reduction in MBP phosphorylation using MBP as substrate by kinase-Glo luminescence assay
[15] = molecular target: T2, Receptor-interacting serine/threonine-protein kinase 1; test: Inhibition of human RIPK1 by ADP-Glo assay
[16] = molecular target: T2, Receptor-interacting serine/threonine-protein kinase 1; test: Inhibition of GSK657 binding to human RIPK1 (1 to 328) by fluorescence Polarization assay
Jurkat = test: Anti-neprotic activity in human Jurkat cells FADD defient assessed as reduction in TNFalpha-induced necroptosis preincubated for 30 mins followed by addition of TNFalpha-stimulation and further incubated for over night by Cell Titer Glo assay; assay type: functional, cell-based
[17] = molecular target: T7, Mixed lineage kinase domain-like protein (Homo sapiens) (UniProt Q8NB16)
T7 sequence (whole entry): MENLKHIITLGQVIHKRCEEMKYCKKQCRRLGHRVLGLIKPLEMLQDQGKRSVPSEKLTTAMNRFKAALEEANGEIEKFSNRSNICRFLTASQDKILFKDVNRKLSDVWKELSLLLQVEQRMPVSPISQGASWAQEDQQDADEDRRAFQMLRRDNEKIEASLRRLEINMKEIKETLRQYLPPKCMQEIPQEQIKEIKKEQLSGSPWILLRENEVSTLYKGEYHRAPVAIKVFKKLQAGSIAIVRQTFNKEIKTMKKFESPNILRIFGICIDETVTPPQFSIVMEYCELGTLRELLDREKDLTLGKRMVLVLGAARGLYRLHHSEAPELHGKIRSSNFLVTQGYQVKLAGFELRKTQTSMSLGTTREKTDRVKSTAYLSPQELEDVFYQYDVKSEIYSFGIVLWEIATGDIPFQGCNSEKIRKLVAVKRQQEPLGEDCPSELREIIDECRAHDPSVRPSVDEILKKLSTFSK

[18] = molecular target: T8, Receptor-interacting serine/threonine-protein kinase 1 (Homo sapiens) (UniProt Q13546)
T8 sequence (whole entry): T2 sequence (Q13546 whole entry)

[19] = molecular target: T2, Receptor-interacting serine/threonine-protein kinase 1; test: Inhibition of RIPK1 (unknown origin)
[20] = molecular target: T5, Receptor-interacting serine/threonine-protein kinase 2; test: Inhibition of recombinant human His-tagged RIPK2 (8 to 317 residues) incubated for 1 hr by ADP-Glo assay
[21] = molecular target: Tyrosine-protein kinase ABL1 (Homo sapiens, UniProt P00519); test: Inhibition of Abl (unknown origin) incubated for 1 hr by ADP-Glo assay
Sequence of Tyrosine-protein kinase ABL1 (P00519 whole entry): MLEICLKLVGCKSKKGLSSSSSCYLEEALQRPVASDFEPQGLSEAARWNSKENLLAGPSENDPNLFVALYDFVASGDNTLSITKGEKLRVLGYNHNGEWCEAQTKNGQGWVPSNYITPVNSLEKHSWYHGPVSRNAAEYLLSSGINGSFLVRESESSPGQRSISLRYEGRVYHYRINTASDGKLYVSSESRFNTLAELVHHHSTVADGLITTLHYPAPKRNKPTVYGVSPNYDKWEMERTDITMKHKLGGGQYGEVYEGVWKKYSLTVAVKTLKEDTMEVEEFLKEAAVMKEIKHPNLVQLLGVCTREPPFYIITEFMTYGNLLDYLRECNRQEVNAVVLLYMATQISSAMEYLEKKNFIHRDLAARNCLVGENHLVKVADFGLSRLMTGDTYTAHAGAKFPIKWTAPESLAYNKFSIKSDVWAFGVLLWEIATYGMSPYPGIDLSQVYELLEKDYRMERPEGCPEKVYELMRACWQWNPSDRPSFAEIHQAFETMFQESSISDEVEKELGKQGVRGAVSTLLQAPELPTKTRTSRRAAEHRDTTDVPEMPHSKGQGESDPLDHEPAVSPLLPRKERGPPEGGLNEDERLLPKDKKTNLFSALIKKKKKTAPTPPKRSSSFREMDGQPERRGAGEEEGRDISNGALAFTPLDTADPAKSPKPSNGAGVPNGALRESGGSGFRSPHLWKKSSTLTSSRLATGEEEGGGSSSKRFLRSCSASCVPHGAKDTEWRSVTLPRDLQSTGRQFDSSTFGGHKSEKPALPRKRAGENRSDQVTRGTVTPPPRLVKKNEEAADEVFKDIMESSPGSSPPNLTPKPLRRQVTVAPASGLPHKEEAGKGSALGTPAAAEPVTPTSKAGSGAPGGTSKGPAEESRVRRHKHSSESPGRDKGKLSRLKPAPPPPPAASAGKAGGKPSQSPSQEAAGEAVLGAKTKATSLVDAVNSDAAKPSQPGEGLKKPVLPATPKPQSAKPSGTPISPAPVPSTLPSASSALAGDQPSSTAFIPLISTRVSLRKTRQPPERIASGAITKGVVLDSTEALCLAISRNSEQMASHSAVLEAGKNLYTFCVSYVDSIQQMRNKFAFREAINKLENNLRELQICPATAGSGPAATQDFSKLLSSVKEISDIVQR

SMILES: CN(c1ccc(NC(=O)Nc2ccc(OC(F)(F)F)cc2)cc1)c1ccnc(Nc2cccc(S(N)(=O)=O)c2)n1 [GW806742X]
IC50 (Fibroblast): < 50 nM

SMILES: Cn1c(=O)c2c(nc(S(C)(=O)=O)n2C)n(C)c1=O
IC50 (HT-29): 390 nM

SMILES: Cn1cc(-c2ccc3c(c2)CCN3C(=O)Cc2cccc(C(F)(F)F)c2)c2c(N)ncnc21
IC50 (L929): 0.4 nM
Activity (Mus musculus [1]): 100%

SMILES: COc1nccnc1NS(=O)(=O)c1ccc(NC(=O)/C=C/c2ccc([N+](=O)[O-])s2)cc1
IC50 (HT-29): < 200 nM

IC50 [2]: 110 nM
SMILES: O=C1NC(=S)NC1Cc1c[nH]c2ccccc12 (centres undefined)

IC50 [3]: 69 nM
SMILES: Cn1cc(-c2ccc3c(c2F)CCN3C(=O)Cc2cccc(C(F)(F)F)n2)c2c(N)ncnc21
IC50 (MEF): 4 nM
IC50 (L929): 0.1 nM
Activity (Mus musculus [4]): 100%

IC50 [5]: 100000 nM
IC50 [2]: 110 nM
SMILES: CN1C(=O)C(Cc2c[nH]c3ccccc23)NC1=S (centres undefined) [NECROSTATIN]

Ki [6]: 189 nM
SMILES: COc1ccc2c(c1)CC[C@H](NC(=O)c1nc3n(n1)[C@H](c1ccccc1)CC3)C(=O)N2C
Activity (Mus musculus [7]): 100%

IC50 [8]: > 1000 nM
SMILES: CC(=O)Nc1nc2ccc(-c3cnc(Cl)c(CC(=O)Cc4ccccc4)c3)cc2s1
Activity (Mus musculus [9]): 90%

IC50 [10]: 77 nM
IC50 [11]: 53200 nM
IC50 [12]: 2 nM
IC50 [13]: 29400 nM
IC50 [14]: 250 nM
SMILES: CC(C)(C)c1nc(-c2cccc(NS(=O)(=O)c3c(F)cccc3F)c2F)c(-c2ccnc(N)n2)s1 [DABRAFENIB]

IC50 [15]: 6.5 nM
IC50 [16]: 8.6 nM
SMILES: Cc1cc(-c2cnc(N)c3c(-c4ccc5scnc5c4)csc23)n(C)n1

ΔTm [17]: 5.63 °C
ΔTm [18]: 0.75 °C
SMILES: C[C@@H](Oc1cc(-c2cnn(C3CCNCC3)c2)cnc1N)c1c(Cl)ccc(F)c1Cl [CRIZOTINIB]
IC50 (Jurkat): > 40000 nM

SMILES: Cn1c(=O)c2c(nc(S(C)(=O)=O)n2C)n(CC#Cc2cccc(O)c2)c1=O
IC50 (HT-29): 2 nM

IC50 [19]: 73.6 nM
SMILES: Cc1ccc(O)cc1Nc1ccnc2cc(-c3ccccn3)ccc12

IC50 [15]: 0.3 nM
IC50 [16]: 0.9 nM
SMILES: CNC(=O)c1ccc2c(c1)ncn2-c1ccc(CC(=O)OC(C)(C)C)cc1

ΔTm [18]: -0.15 °C
SMILES: Nc1nccnc1C(=O)O[C@@H](C(=O)Nc1ccc(F)cc1)c1ccccc1
IC50 (Jurkat): > 40000 nM

IC50 [20]: 1190 nM
IC50 [21]: > 1000 nM
SMILES: Cc1ccc(CCCCN2C(=O)N[C@H](Cc3c[nH]c4c(Cl)cccc34)C2=O)cc1C#Cc1cnc2cccnn12
